For eleven compounds, GI50 and TGI results are on record in PubChem BioAssay (NCI).

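All cell lines were grown in 96-well plates and treated with compound for 48 hours. Abbreviation: GI50, concentration required for 50% inhibition of growth. TGI: total growth inhibition.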 A value given as a limit tells only on which side of the number the result lay.

What all share (test): NCI tumour cell line growth inhibition, 48 h
Assay [1] relates to NCI-H460 lung.
The subject of assay [2] is SF-268 CNS.
In assay [3] the test system is HCT-15 colon.
Assay [4] relates to HOP-92 NSCLC.
For assay [5], the system named is HS 578T breast.
Assay [6] relates to HT29 colon.
In assay [7] the test system is A549 NSCLC.
The subject of assay [8] is A498 renal.
Assay [9] has as its system LXFL 529 NSCLC.
Assay [10] deals with M19-MEL melanoma.

For the compound `NS(=O)(=O)c1ccc(N(/C=C/C(=O)C(F)(F)F)Cc2ccc(Cl)cc2)cc1`, the GI50 in assay [1] was 67.9 µM; in assay [2], 74.3 µM; in assay [3], 31.1 µM; in assay [4], 16.1 µM; in [5], 38.1 µM; in assay [6], 43.9 µM. Moreover, the GI50 in assay [7] was 27.7 µM; in assay [8] it was 17.4 µM. Also, the TGI in assay [1] was greater than 100 µM; in assay [2] it was greater than 100 µM; in assay [3], 87.2 µM; in assay [4], 40.9 µM; in assay [5], greater than 100 µM; in assay [6], greater than 100 µM. Also, the TGI in [7] was greater than 100 µM; in assay [8], 41.2 µM.
In the case of `Cc1cccc2c1CCC21OC(=O)c2c1ccc1ccccc21` (stereo not drawn), the TGI in assay [1], in assay [2], in [9], in assay [3], in assay [10] and in assay [6] was greater than 100 µM in each case. The TGI in assay [7] is greater than 100 µM; in assay [8], 53.4 µM.
`O=C(O)c1c(=O)cccc2ssc12`: the GI50 in [1] was 1.96 µM; in assay [2] it was 1.73 µM; in assay [3], 1.73 µM; in assay [4] it was 1.86 µM; in [5] it was 2.43 µM; in [6] it was 1.89 µM. The GI50 was 1.86 µM in assay [7] and 1.98 µM in [8]. Besides, the TGI came out at 4.13 µM in assay [1]; 3.46 µM in assay [2]; 3.52 µM in [3]; 3.79 µM in assay [4]; 5.54 µM in assay [5]; 3.64 µM in assay [6]. In addition, the TGI in assay [7] is 3.77 µM; in assay [8], 3.54 µM.
Consider `O=C1OC(=O)C2CCCC3CCCC1C32` (stereo not drawn), for which the TGI in assay [1], in assay [2], in assay [3], in assay [4], in assay [5] and in assay [6] was greater than 100 µM throughout. The TGI in assay [7] and in assay [8] was greater than 100 µM each time.
With `CC(=O)O[C@H]1[C@@H]2OC(=O)C(CSc3ccccc3)[C@@H]2C[C@H]2O[C@]2(C)CC/C=C(\C)CCC[C@@H]1C` (stereo partly drawn), the GI50 in assay [1] was 4.4 µM; in [2], 3.51 µM; in assay [3] it was 1.95 µM; in assay [4], 1.74 µM; in assay [5], 2.79 µM; in [6], 3.51 µM. Moreover, the GI50 is 4.34 µM in assay [7] and 2.17 µM in assay [8]. For the same compound, the TGI in assay [1] turned out to be 19.3 µM; in assay [2], 13.3 µM; in assay [3], 6.52 µM; in [4] it was 5.43 µM; in [5] it was 10.2 µM; in assay [6] it was 14.9 µM. For the same compound, the figures for the TGI in [7] and in assay [8] were 21.4 µM and 6.37 µM, respectively.
With `CSc1snc2sc3c(Cl)nnnc3c12`, the TGI in assay [1] stood at 32.8 µM; in assay [2] it was 33.2 µM; in assay [9] it was 4.85 µM; in assay [3], 24.9 µM; in assay [10] it was 24.1 µM; in assay [6], 19.6 µM. In addition, the TGI in assay [7] stood at 33.9 µM; in assay [8], 28.7 µM.
Regarding `O=C1C2CCN(CC2)C1(CO)CO`, the TGI is greater than 100 µM in assay [1]; greater than 100 µM in assay [2]; 34.6 µM in assay [3]; 46.6 µM in [4]; 70.6 µM in assay [5]; 73.7 µM in assay [6]. Also, the TGI is greater than 100 µM in assay [7] and greater than 79.7 µM in assay [8].
Turning to `CN(Cc1cc(Br)cc(Br)c1O)Cc1c(O)ccc2ccccc12`, the TGI in [1] is 54.2 µM; in assay [2], 74.5 µM; in [3], greater than 100 µM; in assay [4], 39.4 µM; in [5] it was 77.2 µM; in assay [6], 37.8 µM. For the same compound, the TGI in assay [7] was determined as 40.9 µM; in [8], 36.2 µM.
For `NS(=O)(=O)CC1CC[CH-]CC1.[Cl-].[Cl-].[Cl-].[Cl-].[Cl-].[Sb+5].c1ccncc1`, the GI50 in assay [1], in assay [2], in assay [3], in assay [4], in [5] and in assay [6] was greater than 100 µM throughout. In addition, the GI50 in [7] and in [8] was greater than 100 µM throughout. Moreover, the TGI in assay [1], in assay [2], in assay [3], in assay [4], in assay [5] and in assay [6] was greater than 100 µM in each case. Further, the TGI in assay [7] and in [8] was greater than 100 µM in each case.
In the case of `CCCCCCCCCCCCCCCCCCOCC(CCP(=O)(CP(=O)(O)O)Oc1ccccc1)OCCCCCCCCCCCCCCCCCC` (stereo not drawn), the TGI in assay [1], in assay [2], in assay [3], in assay [4], in assay [5] and in [6] was greater than 100 µM each time. The TGI in [7] and in [8] was greater than 100 µM each time.
Take `Cc1cc(-c2ccccn2)cc(C)c1/C=C/c1cncc(-c2nn[nH]n2)c1`: the GI50 was greater than 25 µM in assay [1]; greater than 25 µM in [2]; greater than 25 µM in assay [3]; greater than 18.4 µM in [4]; greater than 25 µM in assay [5]; greater than 25 µM in assay [6]. Moreover, the GI50 in assay [7] and in assay [8] was greater than 25 µM each time. The TGI in assay [1], in [2], in assay [3], in assay [4], in assay [5] and in [6] was greater than 25 µM each time. Also, the TGI in [7] and in assay [8] was greater than 25 µM in each case.
